# Test results taken from patent US6337333B1, “Method of treating autoimmune disease with fludarabine-5′-monophosphate” (priority 1992, dated 2002).
# How the values were obtained:
# T lymphocytes = test: T lymphocyte proliferative response to mitogen after 18 hr drug pretreatment (3H-thymidine); type: cell-based, human; conditions: 18 hr pretreatment, FIG. 1A
# Experimental: (§1) In FIG. 1, freshly isolated PBMC were enriched for T and B lymphocytes using Nylon Wool (see Materials and Methods, Example A). The enriched lymphocyte subpopulations were then incubated for 18 hrs at 37° C. with various concentrations of drug. At the end of the pretreatment period, the cell samples were washed, adjusted to 2×10^5 viable cells/ml, and cultured at 1×10^4/well in flat (B cells) or round (T cells) bottomed 96 well microtiter plates in […]. The T cells were incubated for 3 days with PHA-P ([…]) or Con A (5 μg/ml) and the B cells were cultured for 6 days with either PWM (2 μg/ml) or SAC ({fraction (1/60,000)}). 1 μCi of ^3H-thymidine was added per well during the last 18 hr of culture. The wells were then harvested onto glass fiber filters, and counted in 7 ml of Cytoscint (ICN) on the LKB 1219 Rackbeta scintillation counter. The results are expressed as the mean cpm of triplicate wells.
# (§2) Peripheral blood mononuclear cells obtained from normal donors as packed leukocyte preparations were enriched for T and B lymphocytes and pretreated with drug for 18 hrs prior to mitogen stimulation.
# (§3) Peripheral blood mononuclear cells enriched for either T or B lymphocytes were incubated for 18 hrs in complete S-10 medium at 37° C. in 12×75 mm culture tubes at 5×10^5 cells/ml. The cells were then washed in S-10 and cultured in triplicate for either 3 (T lymphocytes) or 6 (B lymphocytes) days at 2.5×10^4/well in round bottom 96-well microtiter plates in S-10 medium at 37° C. and a 5% CO2 humidified atmosphere. The wells were pulsed with 1 μCi 3H-thymidine for the last 18 hr of culture, harvested onto glass fiber filters, and counted with 7 ml Cytoscint with a LKB Rackbeta scintillation counter. The results are reported as “percent Suppression”:
# (§4) % Suppression={1−(mean cpm exp./mean cpm stim control)}×100
# B lymphocytes = test: B lymphocyte proliferative response to mitogen after 18 hr drug pretreatment (3H-thymidine); type: cell-based, human; conditions: 18 hr pretreatment, FIG. 1B
# Experimental: as §1, §2, §3, §4
# [1] = tested on: IgM-RF and IgM production; conditions: therapeutic concentrations of drug; cited from earlier work
# [2] = tested on: Type II collagen-induced arthritis; conditions: cited from earlier work
compound,measurement,setting,value
Nc1nc(F)nc2c1ncn2[C@@H]1O[C@H](CO)[C@@H](O)[C@@H]1O [F],suppression of T lymphocyte's ability to respond to mitogen,T lymphocytes,suppress
same,suppression of B lymphocyte's ability to respond to mitogen,B lymphocytes,suppress
"O=C([O-])c1ccccc1Nc1cc(Cl)ccc1C(=O)[O-].[Na+].[Na+] [lobenzarit, disodium 4-chloro-2,2′-iminodibenzoate]",production of IgM,[1],suppressed
same,production of IgM-RF,[1],suppressed
CC(C)(S)[C@@H](N)C(=O)O [D-penicillamine],effect on disease,[2],early onset of the disease
